Experimental data from patent US20080004271A1, “Inhibitors of TNFalpha, PDE4 and B-RAF, compositions thereof and methods of use therewith” (priority 2006, published 2008).

Columns and labels:
V600E mutant B-RAF = target: T1, V600E mutant B-RAF (Homo sapiens, UniProt P15056, V600E); experiment: V600E Mutant B-RAF 33P Assay; format: biochemical
T1 construct: purchased Upstate
Experimental: Substrate (HIS-MEK1 K97M) is prepared by Celgene Corp. as described above.
Test compound is diluted in 100% DMSO (600 μM). […] Substrate mixture is prepared as 7.5 μM HIS-MEK1 K97M in assay buffer. ATP mixture is prepared as 300 μM ATP, 75 mM MgCl2, 0.05 μCi/μl ^33P ATP in assay buffer.
In a 96 well assay plate (Falcon Polylpropylene well U-bottom), the following are added to each well: 2.5 μl of test compound solution (serial dilutions), 20 μl of substrate mixture and 17.5 μl of enzyme mixture. The plate is incubated for at least 15 minutes. 10 μl of ATP mixture is added and the plate is incubated at room temperature for about 60 minutes. 80 μl of 12.5% TCA is added to each well, and the plate is incubated for at least 20 minutes. The contents of the plate is transferred to a glass fiber filter plate (Millipore) using a Packard Harvester (washing 10× with 1×PBS). 50 μl of Scintillation-20 fluid is added to each well. The plate is read using a Packard TopCount.

pMEK1/2 in A375 cells = experiment: A375 pMEK1/2 Meso Scale Assay; format: cell-based; details: Homo sapiens, A-375, 2 h; A375 pMEK1/2, about two hours incubation
Experimental: On the afternoon of Day 1, cells are plated in a 96-well flat bottom cell culture plate at about 50,000 cells/well in a volume of 100 μl. On the morning of Day 2, serial dilutions of test compound(s) are added to the plate. The plate is incubated for about two hours at 37° C., […]. The plate is blocked about five minutes before the compound incubation step is completed by adding 150 μl/well of MSD (Meso Scale Discovery) blocking solution-A (prepared with 20 ml 1× Tris wash buffer (25 ml of 10× Tris buffer+225 ml deionized water) and 600 mg MSD blocker A) and incubating with vigorous shaking at room temperature for one hour. The plate is washed 4× with 1× Tris wash buffer.
Cells are harvested and lysates prepared by removing medium, washing 1× with ice-cold PBS (calcium and magnesium free), adding 50 μl/well Complete Tris buffer and incubating with shaking at 4° C. for one hour. Lysate samples (25 μl) are added to an MSD Multi-Spot plate and incubated with vigorous shaking at room temperature for two hours. The plate is washed 1× with Tris wash buffer.
25 μl/well of […] detection antibody (Anti-pMEK1/2 antibody; SULFO-TAG labeled, light sensitive) in 3 ml of cold antibody dilution buffer (1 ml blocking solution-A, 1.82 ml 1× Tris wash buffer, 150 μl 2% MSD blocker D-M and 30 μl 10% MSD blocker D-R) is added and the plate is incubated with vigorous shaking at room temperature in the dark for one hour. The plate is washed 1× with Tris wash buffer.
150 μl/well of 1× MSD Read buffer T (with surfactant) is added to the plate and the plate is read using a MSD Sector instrument.

A375 cells = experiment: Alamar Blue Viability Assay; format: cell-based; details: Homo sapiens, A-375, 72 h, 3 days
Experimental: A375 cells (ATCC # CRL-1619; Passage 4˜15; doubling time is roughly 18 hours) are used. Culture medium is DMEM (high glucose, with L-glutamine)+10% FBS+Pen/Strep. Cells are passed every three days at 1:20.
200 μl of medium only is added into all wells along the edges of a 96-well flat bottom plate and 180 μl of cell suspension (containing 1,000 cells) per well is added into the plate with a Low Evaporation Lid (Costar Cat # 3595). The cells are cultured overnight. Compounds and controls are diluted according to standard compound dilution protocol described below. From 30 mM stock solution, 10 mM, 3 mM, 1 mM, and 0.3 mM solutions in 100% DMSO are prepared using the following serial dilution protocol:
The 30, 10, 3, 1 and 0.3 mM solutions are diluted 1:50 (DMSO:medium) by adding 4 μl of each to 196 μl of culture medium. This yields 600 μM, 200 μM, 60 μM, 20 μM, and 6 μM secondary stock solutions. 4 μl of DMSO are added to 196 μl medium for the DMSO control as well. 20 μl of compound dilutions, including the DMSO control locations (Row G, Columns 2-10 are DMSO control wells), are added in triplicate to the cells in the 96-well plate using a repeat pipettor (see plate layout below). This yields final concentrations of 60 μM, 20 μM, 6 μM, 2 μM, and 0.6 μM containing 0.2% DMSO in each well. The plate is gently tapped to evenly distribute compound within the well. The plate is incubated at 5% CO2 at 37° C. for 3 days.
20 μl of Alamar Blue (Biosource #DAL-1100) is added to each well. The plate is incubated in 5% CO2 incubator for 4 hours. Fluorescence is measured with excitation wavelength at 530 nm and emission wavelength at 590 nm using a Victor 2 multilabel plate reader (Perkin Elmer). Data is saved with plate format as a Text file and entered into ActivityBase (Cell-based SAR; Prolif-Alamar; MTT 5 plates unfixed fit) to calculate the percent of DMSO values for each compound set of triplicate wells and IC50 curves are plotted.

T1 sequence (P15056 whole entry V600E): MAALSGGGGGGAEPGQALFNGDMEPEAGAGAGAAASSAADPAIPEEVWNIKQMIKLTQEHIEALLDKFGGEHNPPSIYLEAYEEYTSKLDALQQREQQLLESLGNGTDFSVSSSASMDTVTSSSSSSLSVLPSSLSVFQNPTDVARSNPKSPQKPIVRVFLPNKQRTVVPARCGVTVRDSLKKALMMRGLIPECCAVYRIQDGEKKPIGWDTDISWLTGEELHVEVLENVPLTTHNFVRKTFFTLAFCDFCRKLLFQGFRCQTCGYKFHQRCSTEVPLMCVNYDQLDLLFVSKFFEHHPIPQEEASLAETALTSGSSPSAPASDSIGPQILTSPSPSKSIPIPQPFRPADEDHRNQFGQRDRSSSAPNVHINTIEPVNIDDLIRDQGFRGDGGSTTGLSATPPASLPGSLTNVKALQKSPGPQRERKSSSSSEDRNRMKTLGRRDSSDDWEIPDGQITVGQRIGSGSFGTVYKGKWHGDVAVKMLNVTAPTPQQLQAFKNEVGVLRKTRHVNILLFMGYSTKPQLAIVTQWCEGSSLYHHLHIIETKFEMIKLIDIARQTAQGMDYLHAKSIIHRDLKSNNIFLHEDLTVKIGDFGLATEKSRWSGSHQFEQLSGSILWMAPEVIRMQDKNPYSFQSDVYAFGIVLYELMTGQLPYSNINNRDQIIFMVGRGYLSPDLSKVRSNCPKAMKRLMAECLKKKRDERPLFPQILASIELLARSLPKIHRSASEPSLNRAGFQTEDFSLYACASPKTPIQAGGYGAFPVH

Row | Compound | IC50 (V600E mutant B-RAF) [µM] | IC50 (pMEK1/2 in A375 cells) [µM] | IC50 (A375 cells) [µM]
1 | CC(C)(CO)Nc1nc(-c2cc(O)c(Cl)c(Cl)c2)c2c(N)c(C(N)=O)sc2n1 [Example 264] | 0.1 to 10 | 0.1 to 10 | 0.1 to 10
2 | NC(=O)c1sc2ncnc(-c3cccc(NC(=O)Nc4cccc(C(F)(F)F)c4)c3)c2c1N [Example 295] | 0.1 to 10 | 0.1 to 10 | 0.1 to 10
3 | CC[C@@H](CO)Nc1nc(-c2cncc(OC)c2)c2c(N)c(C(N)=O)sc2n1 [Example 175] | 0.1 to 10 | 0.1 to 10 | 10 to 20
4 | CC(C)(CO)Nc1nc(-c2ccc(Cl)c(Cl)c2)c2c(N)c(C(N)=O)sc2n1 [Example 203] | – | 0.1 to 10 | 10 to 20
5 | Cc1ccc(-c2nc(NC(C)(C)CO)nc3sc(C(N)=O)c(N)c23)cc1O [Example 274] | 0.1 to 10 | 0.1 to 10 | 0.1 to 10
6 | C[C@H](CO)Nc1nc(-c2cccc(O)c2F)c2c(N)c(C(N)=O)sc2n1 [Example 241] | 0.1 to 10 | 0.1 to 10 | 10 to 20
7 | COc1cncc(-c2nc(C)nc3sc(C(N)=O)c(N)c23)c1 [Example 276] | 0.1 to 10 | > 60 | 10 to 20
8 | NC(=O)c1sc2nc(NC3CC3)nc(-c3cccc(NC(=O)Nc4ccc(C(F)(F)F)cc4)c3)c2c1N [Example 250] | – | 0.1 to 10 | 0.1 to 10
9 | CCOc1cncc(-c2nc(NC(C)(C)CO)nc3sc(C(N)=O)c(N)c23)c1 [Example 172] | 30 to 60 | > 60 | > 60
10 | CC(C)(CO)Nc1nc(-c2cccc(NC(=O)Nc3ccc(C(F)(F)F)cc3)c2)c2c(N)c(C(N)=O)sc2n1 [Example 257] | – | 0.1 to 10 | 0.1 to 10
11 | Cc1ccc(NC(=O)Nc2cccc(-c3nc(NC4CC4)nc4sc(C(N)=O)c(N)c34)c2)cc1 [Example 251] | – | 0.1 to 10 | 0.1 to 10
12 | CC[C@@H](CO)Nc1nc(-c2cccc(O)c2F)c2c(N)c(C(N)=O)sc2n1 [Example 242] | 0.1 to 10 | 0.1 to 10 | 10 to 20
13 | COc1cncc(-c2nc(NC(C)(C)CO)nc3sc(C(N)=O)c(N)c23)c1 [Example 173] | – | 0.1 to 10 | 0.1 to 10
14 | NC(=O)c1sc2ncnc(-c3cc(O)cc(Cl)c3)c2c1N [Example 280] | 0.1 to 10 | 0.1 to 10 | 0.1 to 10
15 | CNCCNc1nc(-c2ccc(Cl)c(Cl)c2)c2c(N)c(C(N)=O)sc2n1 [Example 218] | 0.1 to 10 | 30 to 60 | 10 to 20
16 | CC[C@@H](CO)Nc1nc(-c2ccc(Cl)c(Cl)c2)c2c(N)c(C(N)=O)sc2n1 [Example 207] | 0.1 to 10 | 10 to 20 | 10 to 20
17 | Cc1nc(-c2ccc(Cl)c(Cl)c2)c2c(N)c(C(N)=O)sc2n1 [Example 270] | 0.1 to 10 | 20 to 30 | 0.1 to 10
18 | COc1cncc(-c2ncnc3sc(C(N)=O)c(N)c23)c1 [Example 275] | 0.1 to 10 | 10 to 20 | 10 to 20
19 | CC[C@@H](CO)Nc1nc(-c2cccc(NC(=O)Nc3ccc(C(F)(F)F)cc3)c2)c2c(N)c(C(N)=O)sc2n1 [Example 259] | 0.1 to 10 | 0.1 to 10 | 0.1 to 10
20 | C[C@@H](CO)Nc1nc(-c2cccc(O)c2F)c2c(N)c(C(N)=O)sc2n1 [Example 240] | 0.1 to 10 | 0.1 to 10 | 20 to 30
21 | CC[C@H](CO)Nc1nc(-c2cccc(NC(=O)Nc3ccc(C(F)(F)F)cc3)c2)c2c(N)c(C(N)=O)sc2n1 [Example 258] | 0.1 to 10 | 0.1 to 10 | 0.1 to 10

Row | Compound | IC50 (V600E mutant B-RAF) [µM] | IC50 (pMEK1/2 in A375 cells) [µM] | IC50 (A375 cells) [µM]
22 | NC(=O)c1sc2nc(N)nc(-c3cccc(O)c3)c2c1N [Example 185] | 0.1 to 10 | 0.1 to 10 | 0.1 to 10
23 | NC(=O)c1sc2nc(NC3(CO)CC3)nc(-c3ccc(Cl)c(Cl)c3)c2c1N [Example 210] | 0.1 to 10 | 0.1 to 10 | 0.1 to 10
24 | C[C@@H](O)CNc1nc(-c2ccc(Cl)c(Cl)c2)c2c(N)c(C(N)=O)sc2n1 [Example 206] | 0.1 to 10 | 20 to 30 | 20 to 30
25 | NC(=O)CCNc1nc(-c2ccc(Cl)c(Cl)c2)c2c(N)c(C(N)=O)sc2n1 [Example 202] | 0.1 to 10 | 20 to 30 | 10 to 20
26 | COc1cncc(-c2nc(NC3CC3)nc3sc(C(N)=O)c(N)c23)c1 [Example 165] | – | 0.1 to 10 | 0.1 to 10
27 | NC(=O)c1sc2nc(NC(CO)CO)nc(-c3ccc(Cl)c(Cl)c3)c2c1N [Example 204] | 0.1 to 10 | 10 to 20 | 20 to 30
28 | CC[C@H](CO)Nc1nc(-c2cccc(O)c2F)c2c(N)c(C(N)=O)sc2n1 [Example 243] | 0.1 to 10 | 0.1 to 10 | 0.1 to 10
29 | Cc1c(O)cccc1-c1nc(NC(C)(C)CO)nc2sc(C(N)=O)c(N)c12 [Example 239] | 0.1 to 10 | 0.1 to 10 | 0.1 to 10
30 | COc1cncc(-c2nc(N[C@H](C)CO)nc3sc(C(N)=O)c(N)c23)c1 [Example 176] | – | 0.1 to 10 | 0.1 to 10
31 | C[C@H](CO)Oc1nc(-c2ccc(Cl)c(Cl)c2)c2c(N)c(C(N)=O)sc2n1 [Example 212] | – | 0.1 to 10 | 10 to 20
32 | C[C@@H](CO)Cc1nc(-c2ccc(Cl)c(Cl)c2)c2c(N)c(C(N)=O)sc2n1 [Example 164] | – | 10 to 20 | 20 to 30
33 | CC(C)c1nc(-c2ccc(Cl)c(Cl)c2)c2c(N)c(C(N)=O)sc2n1 [Example 238] | 0.1 to 10 | 10 to 20 | –
34 | NC(=O)c1sc2ncnc(-c3cccc(NC(=O)Nc4ccc(C(F)(F)F)cc4)c3)c2c1N [Example 262] | – | 0.1 to 10 | 0.1 to 10
35 | C[C@@H](CO)Nc1nc(-c2ccc(Cl)c(Cl)c2)c2c(N)c(C(N)=O)sc2n1 [Example 200] | – | 0.1 to 10 | 10 to 20
36 | CC(C)(CO)Nc1nc(-c2cc(O)cc(Cl)c2)c2c(N)c(C(N)=O)sc2n1 [Example 190] | – | 0.1 to 10 | 0.1 to 10
37 | NC(=O)c1sc2nc(NC3CC3)nc(-c3cccc(NC(=O)Nc4ccccc4)c3)c2c1N [Example 248] | – | 10 to 20 | 10 to 20
38 | NC(=O)c1sc2nc(NC3CC3)nc(-c3cccc(O)c3F)c2c1N [Example 232] | – | 0.1 to 10 | 0.1 to 10
39 | C[C@H](CO)Nc1nc(-c2ccc(Cl)c(Cl)c2)c2c(N)c(C(N)=O)sc2n1 [Example 201] | – | 0.1 to 10 | 10 to 20
40 | NC(=O)c1sc2ncnc(-c3ccc(Cl)c(Cl)c3)c2c1N [Example 269] | – | > 60 | > 60
41 | C[C@H](CO)Cc1nc(-c2ccc(Cl)c(Cl)c2)c2c(N)c(C(N)=O)sc2n1 [Example 163] | – | 10 to 20 | 30 to 60
